In BigSolDB 2.1:

Cc1cc(O)c2c(c1)C(=O)c1cc(O)cc(O)c1C2=O
solubility (mole fraction)
Settings | 273.65 K | 278.35 K | 289.35 K | 298.15 K | 307.5 K | 313.25 K | 318.05 K | 323.05 K
in ethanol | 0.000485 | 0.000626 | 0.000777 | 0.000936 | 0.00116 | 0.00148 | 0.00168 | 0.00216
in n-octanol | 0.00221 | 0.00239 | 0.00266 | 0.00272 | 0.00299 | 0.00347 | 0.00404 | 0.00463
